Columns and labels:
[1] = tested on: human endometrial adenocarcinoma Ishikawa cells; assay: Estrogenic and anti-estrogenic activities in vitro: induction of alkaline phosphatase (APase) activity; assay type: cell-based; conditions: for EC50: Homo sapiens, Ishikawa, 96 h, compound alone, four days, ND = not detected, read-out: Estrogenic activity EC50 (nM) ± S.E.M; for estrogenic effect in alkaline phosphatase activity in the Ishikawa cell model: in words
Procedure: The estrogenic and anti-estrogenic potentials of new compounds were evaluated using the induction of alkaline phosphatase (APase) activity, an estrogen specific response in human endometrial adenocarcinoma Ishikawa cells (Botella J., J Steroid Biochem Molec Biol, 1995, 55: 77-84; Littlefield et al., Endocrinology, 1990, 127: 2757-2762).
Ishikawa cells were routinely grown as monolayers in Dulbecco's Modified Eagle's medium (DMEM) containing 4 mM Glutamax I and supplemented with 10% of decomplemented fetal calf serum (dFCS) and antibiotics. They were maintained in a humidified atmosphere of 5% CO2 and 95% air, at 37±0.1° C. Stocks were performed once a week to maintain continuous exponential growth.
For studies, Ishikawa cells were plated into 96-well microplates. The next day, the medium was changed to a phenol red-free DMEM containing 5% dFCS stripped of endogenous estrogens by dextran coated charcoal treatment.
At the end of the incubation period, APase activity was assayed by a method involving the hydrolysis of p-nitrophenyl phosphate to p-nitrophenol at pH 9.8 and spectrophotometric determination of the product at 405 nm.
In brief, the microplates were first rinsed twice with cold phosphate buffered solution and then placed at −80° C. for at least 15 minutes. After thawing at room temperature for 5-10 minutes, the plates were put on ice and 50 μl ice-cold solution containing 5 mM p-nitrophenyl phosphate was added to each well. The plates were warmed to room temperature to allow for the development of the enzymatic reaction (t0). After a 15 to 60 minute incubation period, the intensity of the yellow color generated by the production of p-nitrophenol was measured into each well at 405 nm using a microplate reader (Wallac, model 1420 Victor^2). […] Sigmoidal dose-response curves were plotted and EC50 (estrogenic effect) and IC50 (anti-estrogenic effect) values were calculated for each compound.

Prepubescent female rats = assay: Estrogenic / uterotrophic activity in vivo (uterus wet weight); set-up: species or system rat; conditions: Rattus norvegicus, po, 72 h, Table 4; orally 3 mg/rat/day for 3 days; read-out: % stimulation vs vehicle (uterus weight)
Procedure: Prepubescent female rats were orally treated at 3 mg/rat/day for 3 days. On the day following the last treatment, uteri were removed and wet weights were recorded.
The results are expressed as % of stimulation of uterus weight in comparison with vehicles. […]
Prepubescent female rats were orally treated with 0.3; 1; 3 or 10 mg/rat/day for 3 days. On the day following the last treatment, uteri were removed and wet weights were recorded.

[2] = molecular target: purified full-length recombinant human ERβ (Homo sapiens, UniProt Q92731); assay: Estrogen receptor β competitive radiometric binding assay ([3H]-E2); conditions: for selectivity for the human recombinant estrogen receptor β: in words; for RBA (%) Mean ± S.E.M, ER β: ratio of IC50s of E2 and competitor, E2 set at 100%; for R (IC50s) αβ: ratio of the IC50 for ERα to the IC50 for ERβ
Chain of purified full-length recombinant human ERβ (Q92731 whole entry): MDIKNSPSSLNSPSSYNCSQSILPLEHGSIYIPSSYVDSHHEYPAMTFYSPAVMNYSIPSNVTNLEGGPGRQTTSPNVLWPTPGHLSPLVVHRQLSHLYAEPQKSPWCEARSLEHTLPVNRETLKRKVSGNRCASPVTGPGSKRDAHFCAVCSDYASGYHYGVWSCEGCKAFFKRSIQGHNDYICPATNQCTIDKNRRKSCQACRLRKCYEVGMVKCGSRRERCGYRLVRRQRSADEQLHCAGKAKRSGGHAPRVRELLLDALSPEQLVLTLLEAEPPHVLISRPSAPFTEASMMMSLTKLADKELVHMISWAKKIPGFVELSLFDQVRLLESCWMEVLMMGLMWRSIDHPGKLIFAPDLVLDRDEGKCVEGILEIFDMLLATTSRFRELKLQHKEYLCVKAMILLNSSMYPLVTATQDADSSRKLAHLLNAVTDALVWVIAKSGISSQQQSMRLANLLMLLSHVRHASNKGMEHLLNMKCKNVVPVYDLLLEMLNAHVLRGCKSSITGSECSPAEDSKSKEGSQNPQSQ
Procedure: (§1) Relative binding affinities (RBA) were determined by competitive radiometric binding assays, using purified full-length recombinant human ERα and ERβ (PanVera, Madison, Wis.). […] After shaking for a few seconds and centrifugation at 1500 g and 4° C. for 10 minutes, 150 μl/well of Optiphase ‘Super Mix’ scintillation liquid was mixed with 50 μl of supernatant of each sample and the radioactivity was measured in a MicroBeta counter (Wallac, Turku, Finland). Data were evaluated by a sigmoidal dose-response curve (Prism, GraphPad Software Inc.) to estimate the concentration of competitor at half-maximal specific binding (IC50). […] The selectivity for ERα and ERβ was obtained from the ratio R of the IC50 for ERα to the IC50 for ERβ for each test compound.

[3] = molecular target: T1, purified full-length recombinant human ERα (Homo sapiens, UniProt P03372); assay: Estrogen receptor α competitive radiometric binding assay ([3H]-E2); conditions: for RBA (%) Mean ± S.E.M, ER α: ratio of IC50s of E2 and competitor, E2 set at 100%
T1 sequence (P03372 1-595): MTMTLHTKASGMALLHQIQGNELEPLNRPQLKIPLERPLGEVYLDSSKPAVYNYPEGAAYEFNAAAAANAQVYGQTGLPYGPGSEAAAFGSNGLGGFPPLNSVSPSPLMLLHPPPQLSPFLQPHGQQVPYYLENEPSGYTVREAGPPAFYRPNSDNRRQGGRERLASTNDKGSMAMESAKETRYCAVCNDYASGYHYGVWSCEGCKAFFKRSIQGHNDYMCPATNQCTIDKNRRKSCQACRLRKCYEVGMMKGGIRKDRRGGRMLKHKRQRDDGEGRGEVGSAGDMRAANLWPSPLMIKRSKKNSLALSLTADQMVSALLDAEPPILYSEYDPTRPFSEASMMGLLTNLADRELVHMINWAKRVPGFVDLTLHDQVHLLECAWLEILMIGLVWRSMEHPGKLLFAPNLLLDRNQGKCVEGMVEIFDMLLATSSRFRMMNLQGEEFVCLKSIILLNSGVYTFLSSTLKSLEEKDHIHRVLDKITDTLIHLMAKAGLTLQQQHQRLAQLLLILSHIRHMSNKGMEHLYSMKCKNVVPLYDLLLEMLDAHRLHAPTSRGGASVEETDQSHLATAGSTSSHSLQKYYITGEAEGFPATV
Procedure: as §1

[4] = tested on: human breast cancer cell line MCF-7; assay: Proliferative activity in vitro (ATP luminescence, 6 days); assay type: cell-based; conditions: Homo sapiens, MCF7, 144 h; for activity at 1 µM: MCF-7, 10^−6 M, read-out: Effect at 10^−6 M (% of control); for activity at 1 µM / activity at 0.01 µM: six days; for activity at 0.01 µM: MCF-7, 10^−8 M, read-out: Effect at 10^−8 M (% of control); for EC50: MCF-7, six days, read-out: Cell proliferation EC50 (nM) ± S.E.M
Procedure: The proliferative effect of the compounds of the invention was evaluated on human breast cancer cell line MCF-7 by measuring the number of viable cells after 6 days of treatment.
MCF-7 cells were routinely cultured as monolayers in Dulbecco's modified Eagle's medium (DMEM) containing 4 mM Glutamax and 4.5 g/l glucose and supplemented with 5% (v/v) decomplemented fetal calf serum (dFCS) and antibiotics.
Cells were plated at 2.10^6 cells/75 cm^2 flasks and incubated at 37° C. in a humidified atmosphere containing 5% CO2. They were passaged once weekly to maintain continuous exponential growth. Forty eight hours before the start of an experiment, near-confluent cells were changed to a phenol red free DMEM containing 5% steroid-stripped dFCS by dextran coated charcoal treatment (DCC-DMEM). On the day of the experiment, cells were harvested by brief exposure to trypsin and plated in DCC-DMEM in 96-well microplates at a density of 4.10^3 cells/well. The next day, the medium was renewed and test compounds, diluted appropriately in estrogen-free DMEM, were added and incubated for six days. […] At the end of the incubation period, cell proliferation was evaluated by quantitation of the cellular ATP content which signals the presence of metabolically active cells.
The assay, based on the ATP-dependent luciferase reaction, enables generation of a luminescent signal proportional to the amount of ATP present. As there is a linear relationship between the amount of ATP and the number of viable cells present in culture, the luminescent signal allowed to precisely evaluate cell proliferation (Crouch, S. P. M. et al. J. Immunol. Meth., 1993, 160, 81; Kangas, L. et al. Med. Biol. 1984, 62, 338; Petty, R. D. et al. J. Biolum. Chemilum. 1995, 10, 29).
In brief, the microplates were inverted to discard the culture medium and 100 μl of fresh medium was added into each well. The microplates were equilibrated at room temperature for approximately 30 minutes. 100 μl of luciferase reagent was added into each well and contents were mixed for 2 minutes to induce cell lysis. The plates were incubated at room temperature for 10 minutes to stabilize luminescence signal.
Luminescence was recorded using a microplate reader (Wallac, model 1420 Victor^2) and results were expressed as percentage of the control luminescence. Sigmoidal dose-response curves were plotted and EC50 values were calculated for each compound in order to evaluate their proliferative potency.

EC50 [1]	IC50 [2]	selectivity for the human recombinant estrogen receptor β [2]	RBA (%) Mean ± S.E.M, ER β [2]	R (IC50s) αβ [2]	IC50 [3]	RBA (%) Mean ± S.E.M, ER α [3]	melting point	EC50 [4]	SMILES	estrogenic effect in alkaline phosphatase activity in the Ishikawa cell model [1]	change in vivo at 3 mg (Prepubescent female rats)	activity at 1 µM [4]	activity at 0.01 µM [4]
322 ± 20 nM	123 ± 25.9 nM	marked selectivity	2.5 ± 0.4%	18.7	2300 ± 446 nM	0.1 ± 0.03%	152 °C	77.9 ± 4.1 nM	N#CC(Cc1ccc(F)cc1)c1noc2cc(O)ccc12 (centres unmarked) [Ex 84, 2-(6-hydroxy-1,2-benzisoxazol-3-yl)-3-(4-fluorophenyl) propanenitrile]	weak estrogenic effect	24%	286%	97%
221 ± 14 nM	44.6 ± 7.7 nM	marked selectivity	9.4 ± 3.1%	5.8	260 ± 40.1 nM	1.1 ± 0.2%	181 °C	25.4 ± 4 nM	Oc1ccc2c(C3CCCCC3)noc2c1 [Ex 66, 3-cyclohexyl-1,2-benzisoxazol-6-ol]	weak estrogenic effect	31%	149%	100%
	135 ± 31 nM	marked selectivity	2.4 ± 0.4%	14.1	1890 ± 365 nM	0.2 ± 0.03%	154 °C	466 ± 34 nM	N#CC(Cc1ccc(O)c(O)c1)c1noc2cc(O)ccc12 (centres unmarked) [Ex 86, 2-(6-hydroxy-1,2-benzisoxazol-3-yl)-3-(3,4-dihydroxyphenyl) propanenitrile]	weak estrogenic effect	25%	139%	85.6%
	485 ± 158 nM	marked selectivity	1.0 ± 0.3%	6.0	2910 ± 318 nM	0.1 ± 0.0%		365 ± 126 nM	Oc1ccc(Cc2noc3cc(O)ccc23)cc1 [Ex 73, 3-(4-hydroxybenzyl)-1,2-benzisoxazol-6-ol]	weak estrogenic effect	52%	134%	94.2%
124 ± 8.9 nM	37.8 ± 5.4 nM	marked selectivity	5.1 ± 0.8%	2.3	88.6 ± 11.7 nM	1.3 ± 0.2%	190 °C	16.1 ± 2.6 nM	Oc1ccc2c(C3CCCCC3)nsc2c1 [Ex 93, 3-cyclohexyl-1,2-benzisothiazol-6-ol]	weak estrogenic effect	88%	156%	116%

The next lines start with the compound.

SMILES	EC50 [1]	IC50 [2]	selectivity for the human recombinant estrogen receptor β [2]	RBA (%) Mean ± S.E.M, ER β [2]	R (IC50s) αβ [2]	IC50 [3]	RBA (%) Mean ± S.E.M, ER α [3]	melting point	EC50 [4]	estrogenic effect in alkaline phosphatase activity in the Ishikawa cell model [1]	change in vivo at 3 mg (Prepubescent female rats)	activity at 1 µM [4]	activity at 0.01 µM [4]
NS(=O)(=O)n1nc(C2CCCCC2)c2ccc(O)cc21 [Ex 40, 3-cyclohexyl-6-hydroxy-1H-indazole-1-sulfonamide]	132 ± 4.7 nM	188 ± 34 nM		1.0 ± 0.2%	7.9	1480 ± 1180 nM	0.1 ± 0.02%	162 °C	11.5 ± 2.8 nM		41%	152%	107%
Oc1ccc2c(C3CCCCCC3)noc2c1 [Ex 65, 3-cycloheptyl-1,2-benzisoxazol-6-ol]	51.7 ± 6.2 nM	20.2 ± 4.2 nM		13.2 ± 3.1%	3.7	75.3 ± 5.4 nM	2.5 ± 0.6%	156 °C	27.6 ± 2 nM		84%	260%	123%
Cl.Oc1ccc2c(C34CC5CC(CC(C5)C3)C4)n[nH]c2c1 [Ex 31, 3-(1-adamantyl)-1H-indazol-6-ol, hydrochloride]	30.8 ± 0.5 nM	36.2 ± 18.7 nM	marked selectivity	17.7 ± 5.1%	3.3	119 ± 45.2 nM	3.1 ± 0.8%		3.7 ± 0.7 nM	weak estrogenic effect	468%	146%	139%
Oc1ccc2c(C3CCCCC3)n[nH]c2c1 [Ex 24, 3-cyclohexyl-1H-indazol-6-ol]	136.3 ± 1.2 nM	10.2 ± 0.9 nM		24.6 ± 4.3%	15.6	159 ± 23.7 nM	1.2 ± 0.2%	147 °C	18.5 ± 1.8 nM		101%	143%	89.9%

Reference: patent US7977364B2, “Indazoles, benzisoxazoles and benzisothiazoles and their use as estrogenic agents” (Laboratoire Thermamex, priority 2004, dated 2011)
